Measured values: article PMC10222454, “Characterization of the Molecular Diversity and Degranulation Activity of Mastoparan Family Peptides from Wasp Venoms” (Toxins, 2023)
Where two headings read alike, the source gives them in different places. Ends that are not written are not given here.

What was measured:
RBL-2H3 cells = type: cell-based, rat; details: for EC50 / EC50 (μg/mL), RBL-2H3: pH 7.4
Procedure: (§1) RBL-2H3 cells (rat mucosal-type mast cell line) and P815 cells (mouse mast cell tumor cell line) were obtained from the BeNa Culture Collection (Xinyang, China). RBL-2H3 cells were cultured in DMEM (Gibco, Wuhan, China) supplemented with 15% FBS (Gibco), and P815 cells were maintained in RPMI 1640 basic medium supplemented with 10% FBS and antibiotics (100 mg/L streptomycin and 1 × 10^5 U/L penicillin) in a humidified atmosphere (5% CO2, 37 °C).
(§2) Degranulation was analyzed by measuring the release of the granule marker N-acetyl-D-glucosaminidase (β-hexosaminidase), which colocalizes with histamine, as described in [24]. For this, 2 × 10^5 P815 cells/mL or 1.5 × 10^5 RBL-2H3 cells/mL were seeded in 96-well cell culture plates. Twelve hours later, the cells were incubated with various concentrations of mastoparans dissolved in 100 μL HEPES buffer (137 mM NaCl, 2.7 mM KCl, 1 mM MgCl2, 1.8 mM CaCl2, 20 mM HEPES, 1 mg/mL BSA, and 1 mg/mL glucose, pH 7.4) for 15 min at 37 °C and 5% CO2. Then, the reactions were quenched by the addition of 0.15 mL of ice-cold HEPES buffer. After centrifugation, the supernatants were sampled for the β-hexosaminidase assay. Briefly, 50 μL samples of the cell culture supernatants and 50 μL of the substrate, 5 mM p-nitrophenyl-N-acetyl-b-D-glucosaminide (Sigma) in 0.2 M citrate, pH 4.5, were incubated in 96-well plates at 37 °C and 5% CO2 for 16–18 h to yield the chromophore p-nitrophenol, and the reactions were stopped by the addition of 100 μL of 0.2 M glycine solution, pH 10.7. The absorbance of the colored product was assessed at 405 nm using a microtiter plate reader. The values for β-hexosaminidase released in the medium are expressed as the percentage of total β-hexosaminidase, which was measured in the cells after lysis in 0.1% Triton X-100. The experiment was repeated three times, and the results represent the mean and standard deviation (SD) of quadruplicate tests. The percent degranulation was calculated according to the following equation:Degranulation Rate (%) = 100% × (Amastoparans − AHEPES)/(ATriton X-100 − AHEPES).
Statistical analysis was performed with GraphPad Prism software. The curve of mast cell degranulation induced by wasp mastoparans was generated in SigmaPlot 12.5 software, and the EC50 was calculated according to the following equation (Four-Parameter Logistic Curve): y = min + (max − min)/(1 + (x/EC50) […] Hillslope).

P815 cells = assay: Mast cell degranulation activity (β-hexosaminidase release) in P815 cells; type: cell-based, mouse
Procedure: as §1, §2

[1] = RBL-2H3 cells, 80 μg/mL peptide, 15 min at 37 °C, % of total β-hexosaminidase (0.1% Triton X-100 lysis)
[2] = P815 cells, 80 μg/mL peptide, 15 min at 37 °C, % of total β-hexosaminidase (0.1% Triton X-100 lysis)

Substance	Degranulation at 80 μg/mL, RBL-2H3 (RBL-2H3 cells) [%]	EC50 (RBL-2H3 cells) [µM]	EC50 (μg/mL), RBL-2H3 (RBL-2H3 cells) [µg/mL]	Degranulation at 80 μg/mL, P815 (P815 cells) [%]	Degranulation at 80 μg/mL, RBL-2H3 (RBL-2H3 cells; [1]) [%]	Degranulation at 80 μg/mL, P815 (P815 cells; [2]) [%]	degranulation of RBL-2H3 / mast cells, in words (RBL-2H3 cells; RBL-2H3 cells)
INLKAIAALAKKLL-NH2 [Mastoparan-M]	10	> 200	>300	<20	–	–	–
KDLHTVVSAILQAL-NH2 [OdVP3]	–	> 200	>300	–	5	<20	–
INMKAVAAVAKKPL-NH2 [Mastoparan-VB2]	–	> 200	>300	–	0	<20	neither of them could induce the degranulation
LNLKGLFKKVASLLT-OH [Eumenitin-F]	–	–	>300	–	2	<20	hardly induced mast cell degranulation
